Results on one molecule are retold here after paper PMC8921294, “Inhibition of mitochondrial LonP1 protease by allosteric blockade of ATP binding and hydrolysis via CDDO and its derivatives” (The Journal of Biological Chemistry, 2022).

One experiment addresses T1, LonP1 C637V (Homo sapiens, UniProt P36776, C637V).
T1 construct: hexa-histidine (N); made in house; host or cells: Rosetta 2 E. coli
T1 sequence (P36776 68-959 C637V): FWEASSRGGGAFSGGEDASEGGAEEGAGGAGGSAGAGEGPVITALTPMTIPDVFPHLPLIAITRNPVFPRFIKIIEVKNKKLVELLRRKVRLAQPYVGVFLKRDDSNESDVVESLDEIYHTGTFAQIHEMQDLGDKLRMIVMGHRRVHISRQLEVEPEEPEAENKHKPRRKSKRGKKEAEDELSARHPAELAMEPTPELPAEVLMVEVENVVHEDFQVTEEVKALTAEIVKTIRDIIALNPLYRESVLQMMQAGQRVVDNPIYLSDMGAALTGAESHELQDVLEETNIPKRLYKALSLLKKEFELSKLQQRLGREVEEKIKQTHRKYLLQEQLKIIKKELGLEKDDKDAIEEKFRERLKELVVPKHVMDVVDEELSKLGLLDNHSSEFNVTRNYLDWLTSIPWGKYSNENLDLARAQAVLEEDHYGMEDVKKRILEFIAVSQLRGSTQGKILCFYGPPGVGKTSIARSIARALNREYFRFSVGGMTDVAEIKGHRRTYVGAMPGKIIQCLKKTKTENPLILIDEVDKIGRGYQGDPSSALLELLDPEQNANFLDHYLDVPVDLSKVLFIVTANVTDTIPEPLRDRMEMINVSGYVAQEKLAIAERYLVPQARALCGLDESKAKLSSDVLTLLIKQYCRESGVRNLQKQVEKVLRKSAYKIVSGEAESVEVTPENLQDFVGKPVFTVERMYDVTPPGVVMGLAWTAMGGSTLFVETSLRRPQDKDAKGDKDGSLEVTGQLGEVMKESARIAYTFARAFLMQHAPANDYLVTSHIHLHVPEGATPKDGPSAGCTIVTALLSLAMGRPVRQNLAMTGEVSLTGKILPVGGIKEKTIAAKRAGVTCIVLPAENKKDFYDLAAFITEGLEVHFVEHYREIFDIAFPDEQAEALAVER
The experiment is described as follows: Endpoint ATPase assay, LonP1 C637V. In kind it is biochemical. On the procedure:
(§1) Human mitochondrial LonP1 and mutants lacking the predicted mitochondrial targeting sequence were fused to an N-terminal hexa-histidine affinity tag, expressed in Rosetta 2 E. Coli, and purified using a nickel agarose column as previously described ([72]) and protein concentration and buffer exchange carried out using Amicon Ultra centrifugal filtration. LonP1 mutant constructs were obtained from the PCR-based QuikChange Site-Directed Mutagenesis Kit.
(§2) ADP-Glo (Promega) assays were performed according to the manufacturer's protocols. Purified wild-type or mutant LonP1 (400 nM monomer), the 26S proteasome (3 nM), or no enzyme controls were preincubated in 96-well plates (60 min, 25 °C) with ten different concentrations of CDDO and its derivatives, TP-82, enoxolone (5 μM) or DMSO vehicle control in buffer (40 mM Tris-HCl (pH 7.5), 20 mM MgCl2, 0.1 mg/ml BSA and 5% DMSO). The 26S and 20S proteasome were also assayed at 0, 0.75, 1.5, 3, 6, and 12 nM in the absence of CDDO derivatives. […] Assay reagents were used to quench further ATPase activity and generate luminescence signals proportional to the concentration of ADP formed. Background (no enzyme control) luminescence values were subtracted, and resultant values were reported as a percentage of the no drug control (100%). […]

The target in a further experiment is T2, LonP1 F547A/C576V (Homo sapiens, UniProt P36776, C576V/F547A).
T2 construct: hexa-histidine (N); made in house; host or cells: Rosetta 2 E. coli
T2 sequence (P36776 68-959 F547A/C576V): T1 sequence (P36776 68-959 C637V) with F480A, C509V, V570C
The experiment is described as follows: Endpoint ATPase assay, LonP1 F547A/C576V. The experiment is classed as biochemical. On the procedure: as §1, §2

SMILES strings stand for the structures. Numbering of substitutions follows the chain as printed.

On to `CC1(C)CC[C@]2(C(=O)O)CC[C@]3(C)[C@H](C(=O)C=C4[C@@]5(C)C=C(C#N)C(=O)C(C)(C)[C@@H]5CC[C@]43C)[C@@H]2C1` [CDDO, 2-cyano-3,12-dioxooleana-1,9(11)-dien-28-oic acid], for which the “Fold increase in inhibition compared with WT” value was found to be 3.8 on LonP1 C637V and 7.8 on LonP1 F547A/C576V. The IC50 (in general, the concentration needed to halve the response being measured) at LonP1 C637V (end-point ATPase assay, N = 1, read-out: CDDO IC50) was 3.7 µM; at LonP1 F547A/C576V (end-point ATPase assay, read-out: CDDO IC50), 1.8 ± 0.8 µM.
